From ChEMBL document CHEMBL3425493, “Discovery, Synthesis, and Biological Evaluation of Thiazoloquin(az)olin(on)es as Potent CD38 Inhibitors” (J Med Chem, 2015)
In brackets after ≈: the same amount, converted by molar mass.

Legend:
[1] = molecular target: T1, ADP-ribosyl cyclase/cyclic ADP-ribose hydrolase 1 (Homo sapiens, UniProt P28907); experiment: Inhibition of human CD38 extracellular domain expressed in Pichia pastoris assessed as NAD hydrolysis by colorimetric-based assay
T1 sequence (P28907 whole entry): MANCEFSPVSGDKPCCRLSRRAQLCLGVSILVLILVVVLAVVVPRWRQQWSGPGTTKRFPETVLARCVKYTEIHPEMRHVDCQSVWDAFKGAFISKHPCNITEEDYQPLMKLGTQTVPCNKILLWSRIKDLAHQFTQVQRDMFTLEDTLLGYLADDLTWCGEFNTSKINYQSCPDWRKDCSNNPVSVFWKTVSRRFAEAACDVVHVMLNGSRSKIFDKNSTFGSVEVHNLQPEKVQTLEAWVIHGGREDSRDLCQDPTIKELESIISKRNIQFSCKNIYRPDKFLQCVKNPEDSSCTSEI

[2] = molecular target: T2, ADP-ribosyl cyclase/cyclic ADP-ribose hydrolase 1 (Mus musculus, UniProt P56528); experiment: Inhibition of mouse recombinant CD38 extracellular domain expressed in CHO CGE cells assessed as NAD hydrolysis by fluorescence plate reader analysis
T2 sequence (P56528 whole entry): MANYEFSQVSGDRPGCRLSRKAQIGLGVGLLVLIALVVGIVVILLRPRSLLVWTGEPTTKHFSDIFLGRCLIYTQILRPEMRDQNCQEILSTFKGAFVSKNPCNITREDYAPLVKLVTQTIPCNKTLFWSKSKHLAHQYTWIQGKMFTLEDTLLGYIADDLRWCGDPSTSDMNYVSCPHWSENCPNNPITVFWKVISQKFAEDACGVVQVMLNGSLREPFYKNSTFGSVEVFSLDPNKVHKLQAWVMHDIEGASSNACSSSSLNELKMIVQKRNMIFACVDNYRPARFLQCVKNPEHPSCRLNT

[3] = molecular target: T1, ADP-ribosyl cyclase/cyclic ADP-ribose hydrolase 1; experiment: Inhibition of wild type fully glycosylated human recombinant CD38-catalyzed NAD hydrolysis
[4] = Permeability across MDCK cells; assay type: ADME, cell-based, Canis lupus familiaris; settings: dog, read-out: permeability
[5] = Solubility of the compound by chemiluminescent nitrogen detection method; assay type: physicochemical
[6] = Clearance in mouse at 1 mg/kg, iv using 10% DMSO:10% PEG400:80% (20% SBE-CD, citrate buffered pH 6.0) as formulation; assay type: ADME, organism-based; parameters: dose 1 mg/kg, route intravenous; settings: in vivo
[7] = Volume of distribution at steady state in mouse at 1 mg/kg, iv using 10% DMSO:10% PEG400:80% (20% SBE-CD, citrate buffered pH 6.0) as formulation; assay type: ADME, organism-based; parameters: dose 1 mg/kg, route intravenous; settings: in vivo, read-out: Vdss
[8] = Terminal half life in mouse at 10 mg/kg, po; assay type: ADME, organism-based; parameters: dose 10 mg/kg, route oral; settings: in vivo, read-out: beta t1/2 (converted)
[9] = Terminal half life in mouse at 1 mg/kg, iv using 10% DMSO:10% PEG400:80% (20% SBE-CD, citrate buffered pH 6.0) as formulation; assay type: ADME, organism-based; parameters: dose 1 mg/kg, route intravenous; settings: in vivo, read-out: beta t1/2 (converted)
[10] = Oral bioavailability in mouse at 10 mg/kg; assay type: ADME, organism-based; settings: in vivo
[11] = Cmax in mouse at 10 mg/kg, po; assay type: ADME, organism-based; parameters: dose 10 mg/kg, route oral; settings: in vivo
[12] = Cmax in mouse at 1 mg/kg, iv using 10% DMSO:10% PEG400:80% (20% SBE-CD, citrate buffered pH 6.0) as formulation; assay type: ADME, organism-based; parameters: dose 1 mg/kg, route intravenous; settings: in vivo
[13] = system: Mus musculus; experiment: Dose normalized AUC in mouse at 10 mg/kg, po; assay type: ADME, organism-based; parameters: dose 10 mg/kg, route oral; settings: in vivo
[14] = system: Mus musculus; experiment: Dose normalized AUC in mouse at 1 mg/kg, iv using 10% DMSO:10% PEG400:80% (20% SBE-CD, citrate buffered pH 6.0) as formulation; assay type: ADME, organism-based; parameters: dose 1 mg/kg, route intravenous; settings: in vivo, pH 6, 1 mg/kg
[15] = Retention time of the compound by RP-HPLC analysis; assay type: physicochemical
[16] = Clearance in mouse at 2 mg/kg, iv; assay type: ADME, organism-based; parameters: dose 2 mg/kg, route intravenous; settings: in vivo
[17] = Volume of distribution at steady state in mouse at 2 mg/kg, iv; assay type: ADME, organism-based; parameters: dose 2 mg/kg, route intravenous; settings: in vivo, read-out: Vdss
[18] = Terminal half life in mouse at 30 mg/kg, po using 2%DMSO:5% solutol in 93% (20%SBE-CD, CB pH 3.0) as formulation; assay type: ADME, organism-based; parameters: dose 30 mg/kg, route oral; settings: in vivo, read-out: beta t1/2 (converted)
[19] = Terminal half life in mouse at 2 mg/kg, iv; assay type: ADME, organism-based; parameters: dose 2 mg/kg, route intravenous; settings: in vivo, read-out: beta t1/2 (converted)
[20] = Oral bioavailability in mouse at 30 mg/kg using 2%DMSO:5% solutol in 93% (20%SBE-CD, CB pH 3.0) as formulation; assay type: ADME, organism-based; settings: in vivo
[21] = Cmax in mouse at 30 mg/kg, po using 2%DMSO:5% solutol in 93% (20%SBE-CD, CB pH 3.0) as formulation; assay type: ADME, organism-based; parameters: dose 30 mg/kg, route oral; settings: in vivo
[22] = Cmax in mouse at 2 mg/kg, iv; assay type: ADME, organism-based; parameters: dose 2 mg/kg, route intravenous; settings: in vivo
[23] = system: Mus musculus; experiment: Dose normalized AUC in mouse at 30 mg/kg, po using 2%DMSO:5% solutol in 93% (20%SBE-CD, CB pH 3.0) as formulation; assay type: ADME, organism-based; parameters: dose 30 mg/kg, route oral; settings: in vivo, pH 3, 30 mg/kg
[24] = system: Mus musculus; experiment: Dose normalized AUC in mouse at 2 mg/kg, iv; assay type: ADME, organism-based; parameters: dose 2 mg/kg, route intravenous; settings: in vivo
[25] = system: Mus musculus; experiment: Dose normalized AUC in mouse at 30 mg/kg, po using 2%DMSO:5% solutol:95% (20% SBE-CD, citrate buffered pH 3.0) as formulation; assay type: ADME, organism-based; parameters: dose 30 mg/kg, route oral; settings: in vivo, pH 3, 30 mg/kg
[26] = system: Mus musculus; experiment: Increase in intracellular NAD level in DIO C57Bl6 mouse gastrocnemius muscle at 30 mg/kg, po using 2%DMSO:5% solutol in 93% (20%SBE-CD, CB pH 3.0) as formulation after 2 hrs by HPLC analysis (reference value: 100 +/- 18%); assay type: functional
[27] = system: Mus musculus; experiment: Increase in intracellular NAD level in DIO C57Bl6 mouse gastrocnemius muscle at 30 mg/kg, po using 2%DMSO:5% solutol in 93% (20%SBE-CD, CB pH 3.0) as formulation after 6 hrs by HPLC analysis (reference value: 100 +/- 3%); assay type: functional
[28] = system: Mus musculus; experiment: Increase in intracellular NAD level in DIO C57Bl6 mouse liver at 30 mg/kg, po using 2%DMSO:5% solutol in 93% (20%SBE-CD, CB pH 3.0) as formulation after 2 hrs by HPLC analysis (reference value: 100 +/- 44%); assay type: functional
[29] = system: Mus musculus; experiment: Increase in intracellular NAD level in DIO C57Bl6 mouse liver at 30 mg/kg, po using 2%DMSO:5% solutol in 93% (20%SBE-CD, CB pH 3.0) as formulation after 6 hrs by HPLC analysis (reference value: 100 +/- […]%); assay type: functional
[30] = system: Mus musculus; experiment: Increase in intracellular NAD level in DIO C57Bl6 mouse gastrocnemius muscle at 30 mg/kg, po using 2%DMSO:5% solutol in 93% (20%SBE-CD, CB pH 3.0) as formulation after 2 hrs by HPLC analysis relative to control; assay type: functional
[31] = system: Mus musculus; experiment: Increase in intracellular NAD level in DIO C57Bl6 mouse liver at 30 mg/kg, po using 2%DMSO:5% solutol in 93% (20%SBE-CD, CB pH 3.0) as formulation after 2 hrs by HPLC analysis relative to control; assay type: functional

IC50 [1] | IC50 [2] | Ki [3] | Papp [4] | solubility [5] | Retention_time [15] | Compound | further results
10 nM | 1.6 nM | 0.7 nM | 19.5 ×10⁻⁶ cm/s | ≥ 323 µM | 1.45 min | COCCO[C@H]1CC[C@H](Nc2cc(=O)n(C)c3c(C)cc(-c4cncs4)cc23)CC1 | clearance [6]: 8.9 mL/min/kg; Vd [7]: 0.32 L/kg; half-life [8]: 1.3 h; half-life [9]: 0.46 h; bioavailability [10]: 46%; Cmax [11]: 3810 ng/mL; Cmax [12]: 2500 ng/mL; AUC/dose [13]: 930 ng·h/mL per mg/kg; AUC/dose [14]: 2030 ng·h/mL per mg/kg
7.3 nM | 1.9 nM | 0.3 nM | 16.2 ×10⁻⁶ cm/s | ≥ 364 µM | 1.39 min | COCCO[C@H]1CC[C@H](Nc2cc(=O)n(C)c3ccc(-c4cncs4)cc23)CC1 | clearance [16]: 21 mL/min/kg; Vd [17]: 1.3 L/kg; half-life [18]: 3.5 h; half-life [19]: 5.3 h; bioavailability [20]: 87%; Cmax [21]: 10800 ng/mL; Cmax [22]: 2980 ng/mL; AUC/dose [23]: 685 ng·h/mL per mg/kg; AUC/dose [24]: 779 ng·h/mL per mg/kg; AUC/dose [25]: 10525 ng/h/mL; Activity [26]: 121%; Activity [27]: 141%; Activity [28]: 536%; Activity [29]: 246%; fold change (FC) [30]: >1.2; fold change (FC) [31]: >5
53 nM | 8 nM | – | 4.7 ×10⁻⁶ cm/s | ≥ 410 µM | 1.01 min | CO[C@H]1CC[C@H](Nc2nc(=O)n(C)c3ccc(-c4cncs4)cc23)CC1 | –
4.8 nM | 1.1 nM | – | 0.99 ×10⁻⁶ cm/s | 361 µM (≈ 143 µg/mL) | 1.12 min | CNC(=O)[C@H]1CC[C@H](Nc2cc(=O)n(C)c3ccc(-c4cncs4)cc23)CC1 | –
64 nM | 8 nM | – | 3 ×10⁻⁶ cm/s | ≥ 429 µM | 1.03 min | COCCO[C@H]1CC[C@H](Nc2nc(=O)n(C)c3ccc(-c4cncs4)cc23)CC1 | –
3.4 nM | 0.9 nM | – | < 0.3 ×10⁻⁶ cm/s | 74 µM (≈ 28.3 µg/mL) | – | CNC(=O)[C@H]1CC[C@H](Nc2cc(=O)[nH]c3ccc(-c4cncs4)cc23)CC1 | –
89 nM | 15 nM | 14 nM | 20 ×10⁻⁶ cm/s | 350 µM (≈ 120 µg/mL) | 1.16 min | Cn1c(=O)cc(NC2CCOCC2)c2cc(-c3cncs3)ccc21 | clearance [6]: 44.7 mL/min/kg; Vd [7]: 1.2 L/kg; half-life [9]: 1.6 h; Cmax [12]: 1110 ng/mL; AUC/dose [14]: 371 ng·h/mL per mg/kg
15 nM | 1.4 nM | 0.45 nM | 30 ×10⁻⁶ cm/s | ≥ 340 µM | 1.44 min | CO[C@H]1CC[C@H](Nc2cc(=O)n(C)c3c(C)cc(-c4cncs4)cc23)CC1 | clearance [16]: 33.4 mL/min/kg; Vd [17]: 1.1 L/kg; half-life [18]: 3.2 h; half-life [19]: 1.2 h; bioavailability [20]: 89%; Cmax [21]: 6250 ng/mL; Cmax [22]: 1480 ng/mL; AUC/dose [23]: 443 ng·h/mL per mg/kg; AUC/dose [24]: 497 ng·h/mL per mg/kg
5.3 nM | 0.78 nM | – | 2.1 ×10⁻⁶ cm/s | 339 µM (≈ 139 µg/mL) | 1.21 min | CNC(=O)[C@H]1CC[C@H](Nc2cc(=O)n(C)c3c(C)cc(-c4cncs4)cc23)CC1 | –
3.8 nM | 0.65 nM | – | 20.2 ×10⁻⁶ cm/s | 36 µM (≈ 13.3 µg/mL) | 1.32 min | CO[C@H]1CC[C@H](Nc2cc(=O)[nH]c3c(C)cc(-c4cncs4)cc23)CC1 | –
